Experimental data as given in ChEMBL document CHEMBL4706743, “2-Cyanoisonicotinamide Conjugation: A Facile Approach to Generate Potent Peptide Inhibitors of the Zika Virus Protease” (ACS Med Chem Lett, 2021).
pKi: −log10 of the molar value.

Assay: Inhibition of Zika virus NS2B (45 to 96 residues)/N-terminal thrombin cleavage fused and His6-tagged NS3 (1 to 177 residues) protease expressed in Escherichia coli using Bz-Nle-Lys-Lys-Arg-AMC as substrate preincubated for 10 mins followed by substrate addition and measured for 5 mins by fluorophotometric analysis

SMILES | pKi
N=C(N)NCCC[C@@H]1NC(=O)[C@H](CCCCN)NC(=O)CNC(=O)[C@@H]2CSC(=N2)c2cc(ccn2)C(=O)NCCC[C@@H](C(N)=O)NC(=O)[C@H](CCCCN)NC1=O | 5.75
N=C(N)NCCC[C@@H]1NC(=O)[C@H](CCCCN)NC(=O)CNC(=O)[C@@H]2CSC(=N2)c2cc(ccn2)C(=O)NCC[C@@H](C(N)=O)NC(=O)[C@H](CCCCN)NC1=O | 4.84
